According to BindingDB's records for doi:10.1016/s0960-894x(03)00205-1 (Abbott Laboratories, 2003):

assay: Potassium channel opening activity in vitro using LtK cells transfected with Kir6.2/SUR2B exon 17

| EC50 [nM] | Structure (SMILES) |
| --- | --- |
| 751 | O=C(Nc1c(C(O)(C(F)(F)F)C(F)(F)F)ccc2ccccc12)C1CC1 [Cyclopropanecarboxylic acid [2-(2,2,2-trifluoro-1-hydroxy-1-trifluoromethyl-ethyl)-naphthalen-1-yl]-amide] |
| 12 | N#Cc1cccc(C(=O)Nc2c(C(O)(C(F)(F)F)C(F)(F)F)ccc3ccccc23)c1 [3-Cyano-N-[2-(2,2,2-trifluoro-1-hydroxy-1-trifluoromethyl-ethyl)-naphthalen-1-yl]-benzamide] |
| 160 | O=C(Nc1c(C(O)(C(F)(F)F)C(F)(F)F)ccc2ccccc12)c1ccc(C(F)(F)F)cc1 [N-[2-(2,2,2-Trifluoro-1-hydroxy-1-trifluoromethyl-ethyl)-naphthalen-1-yl]-4-trifluoromethyl-benzamide] |
| 12 | O=C(Nc1c(C(O)(C(F)(F)F)C(F)(F)F)ccc2ccccc12)c1cccs1 [Thiophene-2-carboxylic acid [2-(2,2,2-trifluoro-1-hydroxy-1-trifluoromethyl-ethyl)-naphthalen-1-yl]-amide] |
| 72 | C/C=C/C(=O)Nc1c(C(O)(C(F)(F)F)C(F)(F)F)ccc2ccccc12 [But-2-enoic acid [2-(2,2,2-trifluoro-1-hydroxy-1-trifluoromethyl-ethyl)-naphthalen-1-yl]-amide] |
| 6630 | CC(C)C(=O)Nc1c(C(O)(C(F)(F)F)C(F)(F)F)ccc2ccccc12 [N-[2-(2,2,2-Trifluoro-1-hydroxy-1-trifluoromethyl-ethyl)-naphthalen-1-yl]-isobutyramide] |
| > 10000 | O=C(Nc1c(C(O)(C(F)(F)F)C(F)(F)F)ccc2ccccc12)c1cccc(Cl)c1Cl [2,3-Dichloro-N-[2-(2,2,2-trifluoro-1-hydroxy-1-trifluoromethyl-ethyl)-naphthalen-1-yl]-benzamide] |
| 2040 | O=C(Nc1c(C(O)(C(F)(F)F)C(F)(F)F)ccc2ccccc12)c1ccccc1Cl [2-Chloro-N-[2-(2,2,2-trifluoro-1-hydroxy-1-trifluoromethyl-ethyl)-naphthalen-1-yl]-benzamide] |
| 81 | O=C(CC1CCCC1)Nc1c(C(O)(C(F)(F)F)C(F)(F)F)ccc2ccccc12 [2-Cyclopentyl-N-[2-(2,2,2-trifluoro-1-hydroxy-1-trifluoromethyl-ethyl)-naphthalen-1-yl]-acetamide] |
| > 10000 | O=C(Nc1c(C(O)(C(F)(F)F)C(F)(F)F)ccc2ccccc12)c1ccc(-c2ccccc2)cc1 [Biphenyl-4-carboxylic acid [2-(2,2,2-trifluoro-1-hydroxy-1-trifluoromethyl-ethyl)-naphthalen-1-yl]-amide] |
| 46 | CC(C)=CC(=O)Nc1c(C(O)(C(F)(F)F)C(F)(F)F)ccc2ccccc12 [3-Methyl-but-2-enoic acid [2-(2,2,2-trifluoro-1-hydroxy-1-trifluoromethyl-ethyl)-naphthalen-1-yl]-amide] |
| 1160 | CC(C)OC(=O)Nc1c(C(O)(C(F)(F)F)C(F)(F)F)ccc2ccccc12 [[2-(2,2,2-Trifluoro-1-hydroxy-1-trifluoromethyl-ethyl)-naphthalen-1-yl]-carbamic acid isopropyl ester] |
| 18 | CC(=O)Nc1c(C(O)(C(F)(F)F)C(F)(F)F)ccc2ccccc12 [N-[2-(2,2,2-Trifluoro-1-hydroxy-1-trifluoromethyl-ethyl)-naphthalen-1-yl]-acetamide] |
| 131 | CCCC(=O)Nc1c(C(O)(C(F)(F)F)C(F)(F)F)ccc2ccccc12 [N-[2-(2,2,2-Trifluoro-1-hydroxy-1-trifluoromethyl-ethyl)-naphthalen-1-yl]-butyramide] |
| 417 | COc1ccc(C(=O)Nc2c(C(O)(C(F)(F)F)C(F)(F)F)ccc3ccccc23)cc1 [4-Methoxy-N-[2-(2,2,2-trifluoro-1-hydroxy-1-trifluoromethyl-ethyl)-naphthalen-1-yl]-benzamide] |
| 5550 | Cc1ccccc1C(=O)Nc1c(C(O)(C(F)(F)F)C(F)(F)F)ccc2ccccc12 [2-Methyl-N-[2-(2,2,2-trifluoro-1-hydroxy-1-trifluoromethyl-ethyl)-naphthalen-1-yl]-benzamide] |
| 4840 | O=C(NCCCCCCCl)Nc1c(C(O)(C(F)(F)F)C(F)(F)F)ccc2ccccc12 [1-(6-Chloro-hexyl)-3-[2-(2,2,2-trifluoro-1-hydroxy-1-trifluoromethyl-ethyl)-naphthalen-1-yl]-urea] |
| 276 | O=C(Nc1ccc(Cl)cc1)Nc1c(C(O)(C(F)(F)F)C(F)(F)F)ccc2ccccc12 [1-(4-Chloro-phenyl)-3-[2-(2,2,2-trifluoro-1-hydroxy-1-trifluoromethyl-ethyl)-naphthalen-1-yl]-urea] |
| 9 | O=C(Nc1c(C(O)(C(F)(F)F)C(F)(F)F)ccc2ccccc12)c1ccco1 [Furan-2-carboxylic acid [2-(2,2,2-trifluoro-1-hydroxy-1-trifluoromethyl-ethyl)-naphthalen-1-yl]-amide] |
| 570 | O=C(Nc1c(C(O)(C(F)(F)F)C(F)(F)F)ccc2ccccc12)c1ccc(Cl)cc1 [4-Chloro-N-[2-(2,2,2-trifluoro-1-hydroxy-1-trifluoromethyl-ethyl)-naphthalen-1-yl]-benzamide] |
| 24 | O=C(Nc1c(C(O)(C(F)(F)F)C(F)(F)F)ccc2ccccc12)c1cnco1 [Oxazole-5-carboxylic acid [2-(2,2,2-trifluoro-1-hydroxy-1-trifluoromethyl-ethyl)-naphthalen-1-yl]-amide] |
